The values below come from patent publication US7144585B1, “Cilostazol preparation” (Otsuka Pharmaceutical Co., Ltd., priority 1999, dated 2006).

Like-named read-outs stand apart in the source and are kept apart here.

Data set [1] is described as follows: Absorption test at upper and lower portions of the digestive tract (Test Example 8). The format is in vivo. The following applies: rats; for AUC: read-out: AUCO-2 hr. As to the method:
(§1) Preparations of Examples 1, 2, 4 and 5 and Comparative Example 1 were directly administered in a large intestine loop of female rats (3 or 4 rats per group) in the amount of 100 mg/kg calculated on the basis of cilostazol (CLZ). Then, blood was collected with a lapse of time and cilostazol concentration in blood was measured. An average cilostazol concentration in blood is shown in Table 10 and pharmacokinetic parameters after administration are shown in Table 11.
Absorption Test of Slightly Soluble Drug at Upper and Lower Portions of the Digestive Tract.
In the same manner as in Test Example 1, preparations of Example 2 and Comparative Examples 1 and 5 were directly administered in the duodenum and the large intestine of rats. Then, blood was collected with a lapse of time and cilostazol concentration in blood was measured.

Data set [2] can be described thus: Absorption test of cilostazol into the large intestine (Test Example 1). The class given is in vivo, rats. As for the experimental part:
Absorption Test of Cilostazol into the Large Intestine
as §1

Data set [3] can be described thus: Cilostazol dissolution test, Paddle method, 0.3% SLS (Test Example 2). The class given is physicochemical. As to the method:
Preparations of Examples 1, 2 and 4 and Comparative Example 1 were weighed in the amount of 100 mg calculated on the basis of cilostazol and subjected to a dissolution test under the following conditions. To evaluate the dissolution rate, the dissolution percentage was compared after two minutes had passed since the beginning of the test.
Conditions of Dissolution Test
Dissolution test solution: 900 mL of aqueous 0.3% sodium lauryl sulfate solution
Amount of sample: amount corresponding to 100 mg of cilostazol per vessel

Setting [4] is: directly administered in the duodenum.
[5] abbreviates: rat, blood, female rats, large intestine loop, 100 mg/kg as CLZ.

Usually Cmax stands for the maximum level reached in the sampled fluid or tissue. In the case of `O=C1CCc2cc(OCCCCc3nnnn3C3CCCCC3)ccc2N1` [Comp. Example 5, cilostazol], the AUC in data set [1] (female, rat, blood, 100 mg/kg, directly administered in the large intestine) came out at 0.236 µg·h/mL. Also, the highest concentration (Cmax) in data set [1] (female, rat, blood, 100 mg/kg, directly administered in the large intestine, read-out: Cmax) was found to be 0.168 µg/mL. In data set [1] (setting [4]), this molecule had an AUCO-2 hr of 3.682 µg·h/mL and a maximum concentration (Cmax) of 3.002 µg/mL.
As usually defined, the Tmax is the time from dosing to the highest level. In the case of `O=C1CCc2cc(OCCCCc3nnnn3C3CCCCC3)ccc2N1` [Comp. Example 1, cilostazol], the concentration at 0 hr in data set [2] (rat, blood, other: directly administered in a large intestine loop, female rats, direct administration in large intestine loop, 100 mg/kg as CLZ, time after administration 0 hr) was 0 µg/mL. The concentration at 0.083 hr in data set [2] (rat, blood, other: directly administered in a large intestine loop, female rats, large intestine loop, 100 mg/kg as CLZ, 0.083 hr after administration) was 0.015 µg/mL. This molecule also yielded a concentration at 0.25 hr in data set [2] (rat, blood, other: directly administered in a large intestine loop, female rats, large intestine loop, 100 mg/kg as CLZ, 0.25 hr after administration) of 0.026 µg/mL. The molecule also gave a concentration at 0.5 hr in data set [2] (rat, blood, other: directly administered in a large intestine loop, female rats, large intestine loop, 100 mg/kg as CLZ, 0.5 hr after administration) of 0.051 µg/mL. Besides, in data set [2] (rat, blood, other: directly administered in a large intestine loop, female rats, large intestine loop, 100 mg/kg as CLZ, 1.0 hr after administration), the concentration at 1 hr came out at 0.1 µg/mL. Besides, in data set [2] (rat, blood, other: directly administered in a large intestine loop, female rats, large intestine loop, 100 mg/kg as CLZ, 2.0 hr after administration), the concentration at 2 hr was determined as 0.17 µg/mL. Further, the highest concentration (Cmax) in data set [2] (setting [5]) was found to be 0.17 µg/mL; in data set [1] (female, rat, blood, 100 mg/kg, directly administered in the duodenum, read-out: Cmax), 1.91 µg/mL. Further, in data set [2] (setting [5]), the Tmax turned out to be 2 h. Moreover, the AUC(0-t) in data set [2] (rat, blood, female rats, large intestine loop, 100 mg/kg as CLZ, read-out: AUC0–2 hr) amounted to 0.186 µg·h/mL. In data set [2] (rats, large intestine, within two hours after administration), the “blood concentration attained (in words)” value is reported as “sufficient blood concentration was not obtained”. Also, the “dissolution rate / dissolution percentage (in words)” value in data set [3] (0.3% SLS, Paddle 75 rpm) was “low dissolution rate”. Further, in data set [3] (900 mL aqueous 0.3% sodium lauryl sulfate, Paddle method 75 rpm, 100 mg cilostazol per vessel), the “Dissolution percentage after 2 minutes” value is 22.7%. In addition, the AUC in data set [1] (female, rat, blood, 100 mg/kg, directly administered in the duodenum) amounted to 2.59 µg·h/mL. In addition, the AUCO-2 hr in data set [1] (directly administered in the large intestine) is 0.186 µg·h/mL.
